Assay results as given in patent US20260021108A1, “USE OF INHIBITORS OF THE HIPPO SIGNALLING PATHWAY FOR THE TREATMENT OF CHRONIC NEPHROPATHIES” (INSTITUT NATIONAL DE LA SANTÉ ET DE LA RECHERCHE MÉDICALE, priority 2022, published 2026).

Tests used:
mIMCD-3 renal cells [1] = test: Inflammatory cytokine mRNA response to heat inactivated uropathogenic Escherichia coli (UPEC) in mIMCD-3 cells; assay type: cell-based, Mouse; conditions: confluent mIMCD-3 cells, 5 μM XMU-MP-1 and heat inactivated UPEC, 6 hours, n=7-10
Protocol: (§1) Uropathogen E. coli (UTI89 strain, UPEC) bacteria strains were grown as previously described (Zychlinsky Scharff et al., 2019). Inactivation of bacteria was performed on bacteria resuspended at a concentration of 109/ml in PBS and heated at 60° C. for one hour.
Mouse inner medullary collecting duct (mIMCD-3) cells were grown in DMEM/F-12 (1:1, GIBCO, 21331-020) supplemented with 10% FBS, 1% penicillin-streptomycin and 2 mM L-Glutamine (GIBCO, 25030-024). A total of 50,000 cells/cm^2 were seeded for 3 days on 12 well plate. Confluent mIMCD-3 cells were stimulated with 5 μM XMUMP-1 (Selleckchem, S8334), or 10 μM Lats-IN-1 (MedChemExpress, HY-138489) or 0.04% DMSO. […]
(§2) Total RNAs were obtained from cells using RNeasy Mini Kit (Qiagen) and reverse transcribed using High Capacity cDNA Reverse Transcription Kit (Applied Biosystems) according to the manufacturer's protocol. Quantitative PCR were performed with iTaq™ Universal SYBR® Green Supermix (Bio-Rad) on a CFX384 C1000 Touch (Bio-Rad). […] Each biological replicate was measured in technical duplicates.
(§3) Data are expressed as means+/−standard deviation. Differences between groups were evaluated using unpaired t test when only 2 groups were evaluated or one-way ANOVA followed, when significant (P<0.05), by the Tukey-Kramer test. […]

MDCK renal cells [2] = test: NPH-cytokine signature mRNA abundance (qRT-PCR) in confluent MDCK cells; assay type: cell-based, Dog; conditions: 5 μM XMU-MP-1, 6 hours, n=3-6
Protocol: Madin-Darby canine kidney cells (MDCK, kind gift from Prof. Kai Simons, MPI-CBG, Dresden, Germany) were cultured using DMEM (GIBCO, 41966-029) supplemented with 10% FBS (GIBCO, 10270-106) and 1% penicillin-streptomycin (GIBCO, 15140-122). A total of 200,000 cells/cm^2 were seeded for 10 days on 12 well plate (Corning, 353043). Confluent MDCK cells were stimulated for 6 hours with 5 μM XMU-MP-1 (Selleckchem, S8334) or 0.04% DMSO. For bacteria experiment, MDCK cells were starved overnight prior stimulation and then stimulated for 6 hours with 5 μM XMU-MP-1 or 10 μM Lats-IN-1 (MedChemExpress, HY-138489) with or without 1.108/mL UPEC. All cells were regularly tested for mycoplasma contamination and were mycoplasma-free.
(§4) Total RNAs were obtained from cells using RNeasy Mini Kit (Qiagen) and reverse transcribed using High Capacity cDNA Reverse Transcription Kit (Applied Biosystems) according to the manufacturer's protocol. Quantitative PCR were performed with iTaq™ Universal SYBR® Green Supermix (Bio-Rad) on a CFX384 C1000 Touch (Bio-Rad). Hprt, Sdha, Gapdh and Ppia were used as normalization controls. Each biological replicate was measured in technical duplicates.
as §3

mIMCD-3 renal cells [3] = test: NPH-cytokine signature mRNA abundance (qRT-PCR) in confluent mIMCD-3 cells; assay type: cell-based, Mouse; conditions: n=3
Protocol: Mouse inner medullary collecting duct (mIMCD-3) cells were grown in DMEM/F-12 (1:1, GIBCO, 21331-020) supplemented with 10% FBS, 1% penicillin-streptomycin and 2 mM L-Glutamine (GIBCO, 25030-024). A total of 50,000 cells/cm^2 were seeded for 3 days on 12 well plate. Confluent mIMCD-3 cells were stimulated with 5 μM XMUMP-1 (Selleckchem, S8334), or 10 μM Lats-IN-1 (MedChemExpress, HY-138489) or 0.04% DMSO. For bacteria experiment, mIMCD-3 cells were starved overnight prior stimulation and then stimulated for 6 hours with 5 μM XMU-MP-1 or 0.04% DMSO with or without 1.108/mL UPEC.
as §4
Data are expressed as means+/−standard deviation. Differences between groups were evaluated using unpaired t test when only 2 groups were evaluated or one-way ANOVA followed, when significant (P<0.05), by the Tukey-Kramer test. The statistical analysis was performed using GraphPad Prism V8 software.

MDCK renal cells [4] = test: Ccl2 and Cxcl10 mRNA response to UPEC in confluent MDCK cells; assay type: cell-based, Dog; conditions: 6 hours, n=5
Protocol: as §1
Madin-Darby canine kidney cells (MDCK, kind gift from Prof. Kai Simons, MPI-CBG, Dresden, Germany) were cultured using DMEM (GIBCO, 41966-029) supplemented with 10% FBS (GIBCO, 10270-106) and 1% penicillin-streptomycin (GIBCO, 15140-122). A total of 200,000 cells/cm^2 were seeded for 10 days on 12 well plate (Corning, 353043). Confluent MDCK cells were stimulated for 6 hours with 5 μM XMU-MP-1 (Selleckchem, S8334) or 0.04% DMSO. […]
as §2, §3

Structure (SMILES)	inflammatory response to uropathogenic bacteria (cytokine mRNA abundance) (mIMCD-3 renal cells [1])	NPH-cytokine signature (Ctgf, Cyr61, Ccl2, Ccl5, Cx3cl1, Cxcl10, Cxcl16, Cxcl17, Il1rn, Il34 mRNA abundance) (MDCK renal cells [2])	NPH-cytokine signature (Ctgf, Cyr61, Ccl2, Ccl5, Cx3cl1, Cxcl1, Cxcl10, Cxcl16, Cxcl17, Il1rn, Il33, Il34, Lgals9 mRNA abundance) (mIMCD-3 renal cells [3]; 5 μM XMU-MP-1, 6 hours)	inflammatory response to bacteria (Ccl2 and Cxcl10 mRNA abundance) (MDCK renal cells [4]; 5 μM XMU-MP-1 and UPEC)	NPH-cytokine signature (Ctgf, Cyr61, Ccl2, Ccl5, Cx3cl1, Cxcl1, Cxcl10, Cxcl16, Cxcl17, Il1rn, Il33, Il34, Lgals9 mRNA abundance) (mIMCD-3 renal cells [3]; 10 μM Lats-IN-1, 6 hours)	inflammatory response to bacteria (Ccl2 and Cxcl10 mRNA abundance) (MDCK renal cells [4]; 10 μM Lats-IN-1 and UPEC)
CN1C(=O)c2sccc2N(C)c2nc(Nc3ccc(S(N)(=O)=O)cc3)ncc21 [XMU-MP-1, 4-[(6, 10-Dihydro-5, 10-dimethyl-6-oxo-5H-pyrimido[5,4-b]thieno[3,2-e][1,4]diazepin-2-yl)amino]benzenesulfonamide]	blunts inflammatory response to uropathogenic bacteria	reduces NPH-cytokine signature	suppresses NPH-cytokine signature	reduces NPH-cytokine signature and inflammatory response to bacteria		
O=C(N=c1sccn1Cc1ccccc1)c1c[nH]c2ncccc12 [Lats-IN-1, N-(3-benzylthiazol-2(3H)-ylidene)-1H-pyrrolo[2,3-b]pyridine-3-carboxamide]					suppresses partially NPH-cytokine signature	reduces NPH-cytokine signature and inflammatory response to bacteria
